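Each compound was tested at five concentrations against cells in 96-well plates for 48 hours. Here, GI50 denotes the concentration required for 50% inhibition of growth.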 Activity calls are given as the source filed them. Cut-off read from the data, not from the text of the source: active = GI50 up to about 1.1 µM and inactive = higher.
Experiments:
Assay in all cases: growth of human tumour cells (NCI), 48 h
786-0 = test system: 786-0
A498 = test system: A498
BT-549 = test system: BT-549
CCRF-CEM = test system: CCRF-CEM
EKVX = test system: EKVX
HCC 2998 = test system: HCC 2998
HT-29 = test system: HT-29
Hs-578T = test system: Hs-578T
IGROV-1 = test system: IGROV-1
K562 = test system: K562
NCI-H522 = test system: NCI-H522
OVCAR-3 = test system: OVCAR-3
RPMI-8226 = test system: RPMI-8226
SK-MEL-28 = test system: SK-MEL-28
SK-MEL-2 = test system: SK-MEL-2
SK-MEL-5 = test system: SK-MEL-5
SK-OV-3 = test system: SK-OV-3
SNB-19 = test system: SNB-19
T47D = test system: T47D

Measured: GI50

N#CC(c1ccccc1)N1CCCN(C(C#N)c2ccccc2)C1c1ccccc1O (stereo unspecified)
inactive: 786-0 > 100 µM | A498 > 100 µM | BT-549 > 100 µM | CCRF-CEM 40.1 µM | EKVX > 100 µM | HCC 2998 > 100 µM | HT-29 55.8 µM | Hs-578T > 100 µM | IGROV-1 > 100 µM | K562 > 100 µM | NCI-H522 > 100 µM | OVCAR-3 48.3 µM | RPMI-8226 60.5 µM | SK-MEL-28 > 100 µM | SK-MEL-2 > 100 µM | SK-MEL-5 > 100 µM | SK-OV-3 > 100 µM | SNB-19 > 100 µM | T47D > 100 µM

N#Cc1ccccc1OCCOc1ccccc1C#N
inactive: 786-0 > 100 µM | A498 > 100 µM | BT-549 > 100 µM | CCRF-CEM > 100 µM | EKVX > 100 µM | HCC 2998 > 100 µM | HT-29 > 100 µM | Hs-578T > 100 µM | IGROV-1 > 100 µM | K562 20.3 µM | NCI-H522 > 100 µM | OVCAR-3 > 100 µM | RPMI-8226 > 100 µM | SK-MEL-28 > 100 µM | SK-MEL-2 > 100 µM | SK-MEL-5 > 100 µM | SK-OV-3 > 100 µM | SNB-19 > 100 µM | T47D > 100 µM

O=c1c(C(c2ccc(OCc3ccccc3)cc2)c2c(O)oc3ccccc3c2=O)c(O)oc2ccccc12
inactive: 786-0 38.2 µM | A498 83.2 µM | BT-549 24.9 µM | CCRF-CEM 38.2 µM | EKVX 39 µM | HCC 2998 35.1 µM | HT-29 33 µM | Hs-578T 34.3 µM | IGROV-1 77.4 µM | K562 10 µM | NCI-H522 27.2 µM | OVCAR-3 63.8 µM | RPMI-8226 43.1 µM | SK-MEL-28 78 µM | SK-MEL-2 61.1 µM | SK-MEL-5 29.6 µM | SK-OV-3 50.5 µM | SNB-19 40.6 µM | T47D 81.1 µM

Clc1ccc(C2C3COc4ccccc4C3=NN2c2ccccc2)cc1 (stereo unspecified)
inactive: 786-0 > 29.6 µM | A498 > 100 µM | BT-549 68.5 µM | CCRF-CEM 2.38 µM | EKVX > 100 µM | HCC 2998 > 100 µM | HT-29 29.4 µM | Hs-578T 54.2 µM | IGROV-1 > 69 µM | K562 3.19 µM | NCI-H522 17.8 µM | OVCAR-3 > 57.3 µM | RPMI-8226 2.1 µM | SK-MEL-28 99.5 µM | SK-MEL-2 > 75.3 µM | SK-MEL-5 > 82.8 µM | SK-OV-3 > 100 µM | SNB-19 > 46.9 µM | T47D > 69.7 µM

Cn1c(N=P(c2ccccc2)(c2ccccc2)c2ccccc2)c([N+](=O)[O-])c(=O)n(C)c1=O
inactive: 786-0 39 µM | A498 59.7 µM | BT-549 38.5 µM | CCRF-CEM 20.2 µM | EKVX 56.2 µM | HCC 2998 71.8 µM | HT-29 44.5 µM | Hs-578T 25.2 µM | IGROV-1 48 µM | K562 16.2 µM | NCI-H522 41.9 µM | OVCAR-3 30.5 µM | RPMI-8226 34 µM | SK-MEL-2 17.4 µM | SK-MEL-5 47.4 µM | SK-OV-3 > 100 µM | SNB-19 > 100 µM | T47D 33.7 µM

CC(C)=CC(=O)c1[nH]c2ccccc2c1CC(=O)NCCc1cn(C(c2ccccc2)(c2ccccc2)c2ccccc2)cn1
inactive: 786-0 3.82 µM | A498 4.22 µM | BT-549 3.25 µM | CCRF-CEM 2.48 µM | EKVX 3.48 µM | HCC 2998 1.97 µM | HT-29 3.32 µM | Hs-578T 16.8 µM | IGROV-1 3.84 µM | K562 2.99 µM | NCI-H522 6.71 µM | OVCAR-3 3.84 µM | RPMI-8226 1.98 µM | SK-MEL-28 3.4 µM | SK-MEL-2 1.81 µM | SK-MEL-5 2.08 µM | SK-OV-3 13.5 µM | SNB-19 6.05 µM | T47D 3.77 µM

C/C(=N\NC(=S)NCCNC(=S)N/N=C(\C)c1ccccn1)c1ccccn1
inactive: 786-0 1.26 µM | A498 4.44 µM | BT-549 2.36 µM | CCRF-CEM 1.28 µM | EKVX 4.83 µM | HCC 2998 7.28 µM | HT-29 2.07 µM | Hs-578T > 73.1 µM | IGROV-1 2.07 µM | K562 3.17 µM | NCI-H522 6.04 µM | OVCAR-3 2.74 µM | RPMI-8226 1.7 µM | SK-MEL-28 4.75 µM | SK-MEL-2 1.82 µM | SK-MEL-5 1.74 µM | SK-OV-3 4.7 µM | SNB-19 9.46 µM | T47D 4.43 µM

Clc1ccc(-c2ccc(-c3nnc(CCc4nnc(-c5ccc(-c6ccc(Cl)cc6)o5)o4)o3)o2)cc1
inactive: 786-0 > 43.3 µM | A498 30.5 µM | BT-549 > 100 µM | CCRF-CEM 2.89 µM | EKVX > 85.3 µM | HCC 2998 > 100 µM | HT-29 > 100 µM | Hs-578T 14.8 µM | IGROV-1 > 71.9 µM | K562 7.93 µM | NCI-H522 24.8 µM | OVCAR-3 > 100 µM | RPMI-8226 34 µM | SK-MEL-28 > 100 µM | SK-MEL-2 23.4 µM | SK-MEL-5 > 100 µM | SK-OV-3 > 45 µM | SNB-19 > 100 µM | T47D 75.7 µM

CC(=O)c1c(-c2ccccc2)c(-c2ccc(OCCN(C)C)cc2)n2ccccc12
inactive: 786-0 18.3 µM | A498 19.2 µM | BT-549 14.9 µM | CCRF-CEM 21 µM | EKVX 17.5 µM | HCC 2998 14.6 µM | HT-29 3.44 µM | Hs-578T 16.3 µM | IGROV-1 16.6 µM | K562 13.4 µM | NCI-H522 14.1 µM | OVCAR-3 16.6 µM | RPMI-8226 20.8 µM | SK-MEL-28 15.2 µM | SK-MEL-2 19.1 µM | SK-MEL-5 10.3 µM | SK-OV-3 19.2 µM | SNB-19 19.3 µM | T47D 16.7 µM

Cc1cc2c(c(=O)n1C)SCC2
inactive: 786-0 > 100 µM | A498 > 100 µM | BT-549 > 100 µM | CCRF-CEM > 100 µM | HCC 2998 > 100 µM | HT-29 > 100 µM | Hs-578T > 100 µM | IGROV-1 > 100 µM | K562 > 100 µM | NCI-H522 > 100 µM | OVCAR-3 > 100 µM | RPMI-8226 > 100 µM | SK-MEL-28 > 100 µM | SK-MEL-2 > 100 µM | SK-MEL-5 > 100 µM | SK-OV-3 > 100 µM | SNB-19 > 100 µM | T47D > 100 µM

COc1cc(/C=C/c2nc(NC(=S)Nc3ccccc3)nnc2C)cc(OC)c1OC
inactive: 786-0 28.3 µM | A498 27.8 µM | BT-549 25.2 µM | CCRF-CEM 13.5 µM | EKVX 22.4 µM | HCC 2998 12.6 µM | HT-29 14.7 µM | Hs-578T 17.6 µM | IGROV-1 27.2 µM | K562 29.9 µM | NCI-H522 11.1 µM | RPMI-8226 22.7 µM | SK-MEL-28 > 100 µM | SK-MEL-2 14.5 µM | SK-MEL-5 14.7 µM | SK-OV-3 29.6 µM | SNB-19 32.5 µM | T47D 19.7 µM

CCCCN1C(=O)N(c2ccc(OCC)cc2)C2N(CCCC)C1C(C)(C)C2(C)C (stereo unspecified)
inactive: 786-0 21.5 µM | A498 35.2 µM | BT-549 30.3 µM | CCRF-CEM 16.3 µM | EKVX 19.7 µM | HCC 2998 51.3 µM | HT-29 38.5 µM | Hs-578T 18.6 µM | IGROV-1 33.6 µM | NCI-H522 44.1 µM | OVCAR-3 15.7 µM | RPMI-8226 14.9 µM | SK-MEL-28 32.1 µM | SK-MEL-2 31.6 µM | SK-MEL-5 15.7 µM | SK-OV-3 19.2 µM | SNB-19 35.6 µM | T47D 22.4 µM

CCOC(=O)c1c(N)nn2c1cc1cccccc12
inactive: 786-0 34.4 µM | A498 29.4 µM | BT-549 25.3 µM | CCRF-CEM 43.5 µM | EKVX 16.3 µM | HCC 2998 30 µM | HT-29 36.2 µM | Hs-578T 29.9 µM | IGROV-1 27.9 µM | NCI-H522 20.1 µM | OVCAR-3 28.2 µM | RPMI-8226 18.3 µM | SK-MEL-28 29.9 µM | SK-MEL-2 19.1 µM | SK-MEL-5 26.1 µM | SK-OV-3 26.8 µM | SNB-19 40.7 µM | T47D 22.6 µM

N=C(N)SCCSC(=N)N
inactive: 786-0 > 100 µM | A498 > 100 µM | BT-549 > 100 µM | EKVX 47 µM | HCC 2998 > 100 µM | HT-29 > 100 µM | Hs-578T > 100 µM | IGROV-1 > 100 µM | K562 > 100 µM | NCI-H522 > 100 µM | OVCAR-3 > 100 µM | RPMI-8226 > 100 µM | SK-MEL-28 > 100 µM | SK-MEL-5 > 100 µM | SK-OV-3 > 100 µM | SNB-19 > 100 µM | T47D > 100 µM

CC(=O)Oc1ccc2c3c1[C@H]1O[C@H]1c1cccc(c1-3)[C@@H]1O[C@H]21
inactive: 786-0 2.21 µM | A498 11.9 µM | BT-549 8.97 µM | EKVX 16.5 µM | HCC 2998 7.78 µM | HT-29 7.18 µM | Hs-578T 5.58 µM | K562 5.02 µM | NCI-H522 1.9 µM | OVCAR-3 3.18 µM | RPMI-8226 3.22 µM | SK-MEL-28 8.15 µM | SK-MEL-2 9.55 µM | SK-MEL-5 4.25 µM | SK-OV-3 14.6 µM | SNB-19 15.8 µM | T47D 2.09 µM

From ChEMBL document CHEMBL1201862, “PubChem BioAssay data set” (2004)
